In data set [1] the target is T1, von Hippel-Lindau disease tumor suppressor/E3 ubiquitin-protein ligase Mdm2 (Homo sapiens, UniProt Q00987+P40337). Description: Protac activity at VHL/MDM2 in human MCF7 cells assessed as reduction in MDM2 protein level at 100 uM after 48 hrs by Western blotting analysis. Type of data set: cell-based.
Target sequence in this assay (P40337 whole entry, looked up): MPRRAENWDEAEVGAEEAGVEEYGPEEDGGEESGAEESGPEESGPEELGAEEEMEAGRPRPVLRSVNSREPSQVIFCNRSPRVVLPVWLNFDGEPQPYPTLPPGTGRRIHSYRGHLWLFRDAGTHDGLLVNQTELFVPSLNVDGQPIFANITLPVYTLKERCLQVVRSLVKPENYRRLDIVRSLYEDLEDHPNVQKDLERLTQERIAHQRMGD
Target sequence in this assay (Q00987 whole entry, looked up): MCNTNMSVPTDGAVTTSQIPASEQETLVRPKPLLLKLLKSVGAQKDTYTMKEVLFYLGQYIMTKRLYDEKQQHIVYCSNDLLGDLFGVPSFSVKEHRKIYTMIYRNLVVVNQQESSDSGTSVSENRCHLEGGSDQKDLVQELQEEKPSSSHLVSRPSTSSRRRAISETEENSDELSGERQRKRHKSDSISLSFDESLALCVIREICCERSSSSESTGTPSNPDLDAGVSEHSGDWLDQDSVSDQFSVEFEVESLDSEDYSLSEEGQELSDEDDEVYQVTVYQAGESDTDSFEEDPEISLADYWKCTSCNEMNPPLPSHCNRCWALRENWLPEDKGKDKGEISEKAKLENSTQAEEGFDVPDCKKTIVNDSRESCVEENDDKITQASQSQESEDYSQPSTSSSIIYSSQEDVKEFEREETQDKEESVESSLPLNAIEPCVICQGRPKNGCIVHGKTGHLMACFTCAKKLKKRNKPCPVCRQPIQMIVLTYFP
Data set [2] deals with T1, von Hippel-Lindau disease tumor suppressor/E3 ubiquitin-protein ligase Mdm2. Put plainly: Protac activity at VHL/MDM2 in human MDA-MB-231 cells assessed as reduction in MDM2 protein level at 80 uM after 48 hrs by Western blotting analysis. Type of data set: cell-based.
Target sequence in this assay (P40337 whole entry, looked up): as the sequence (P40337 whole entry, looked up) above
Target sequence in this assay (Q00987 whole entry, looked up): as the sequence (Q00987 whole entry, looked up) above
Another data set has as its system SJSA-1. Put plainly: Antiproliferative activity against human SJSA-1 cells assessed as cell viability at 100 uM incubated for 48 to 72 hrs by MTT assay. Type of data set: functional. The conditions noted are these: time 48-72 hrs, read-out: Activity.
In a further data set the test system is MCF7. Put plainly: Antiproliferative activity against human MCF7 cells assessed as cell viability at 100 uM incubated for 48 to 72 hrs by MTT assay. Type of data set: functional. As to conditions: time 48-72 hrs, read-out: Activity.
For another data set, the system named is HepG2. Description: Antiproliferative activity against human HepG2 cells assessed as cell viability at 100 uM incubated for 48 to 72 hrs by MTT assay. Type of data set: functional. The conditions noted are these: time 48-72 hrs, read-out: Activity.
The next data set concerns MDA-MB-231. Put plainly: Antiproliferative activity against human MDA-MB-231 cells assessed as cell viability at 100 uM incubated for 48 to 72 hrs by MTT assay. As to conditions: time 48-72 hrs, read-out: Activity. Type of data set: functional.
Data set [3] is described as follows: Cytotoxicity against mouse HT-22 cells assessed as cell viability at 100 uM incubated for 48 to 72 hrs by MTT assay. As to conditions: time 48-72 hrs, read-out: Activity. Type of data set: toxicity, cell-based.
For data set [4], the target named is E3 ubiquitin-protein ligase Mdm2 (Homo sapiens, UniProt Q00987). Put plainly: Binding affinity to MDM2 (unknown origin) by SPR assay.
The target in data set [5] is T1, von Hippel-Lindau disease tumor suppressor/E3 ubiquitin-protein ligase Mdm2. Put plainly: Protac activity at VHL/MDM2 in human MCF7 cells assessed as reduction in MDM2 protein level after 48 hrs by Western blotting analysis. Type of data set: cell-based.
For data set [6] the target is unchanged. Description: Protac activity at VHL/MDM2 in human MCF7 cells assessed as reduction in MDM2 protein level at 100 uM pretreated with MG-132 for 2 hrs followed by compound addition and measured after 48 hrs by Western blotting analysis. Type of data set: cell-based.
Target sequence in this assay (P40337 whole entry, looked up): as the sequence (P40337 whole entry, looked up) above
Target sequence in this assay (Q00987 whole entry, looked up): as the sequence (Q00987 whole entry, looked up) above
For data set [7] the target is unchanged. Description: Protac activity at VHL/MDM2 in human MCF7 cells assessed as upregulation of p53 level at 75 to 105 uM after 48 hrs by Western blotting analysis. Type of data set: cell-based. As to conditions: dose 75-105 µM.
Target sequence in this assay (P40337 whole entry, looked up): as the sequence (P40337 whole entry, looked up) above
Target sequence in this assay (Q00987 whole entry, looked up): as the sequence (Q00987 whole entry, looked up) above
The target is the same in data set [8]. Put plainly: Protac activity at VHL/MDM2 in human MCF7 cells assessed as upregulation of p21 level at 75 to 105 uM after 48 hrs by Western blotting analysis. Type of data set: cell-based. As to conditions: dose 75-105 µM.
Target sequence in this assay (P40337 whole entry, looked up): as the sequence (P40337 whole entry, looked up) above
Target sequence in this assay (Q00987 whole entry, looked up): as the sequence (Q00987 whole entry, looked up) above

This is an account of results in ChEMBL document CHEMBL5500349, “Discovery of ganoderic acid A (GAA) PROTACs as MDM2 protein degraders for the treatment of breast cancer” (Eur J Med Chem, 2024).

The source made the active and inactive calls. The calls are words filed in the database; no cut-off is given here.

E3 ubiquitin-protein ligase Mdm2, sequence (Q00987 whole entry): as the sequence (Q00987 whole entry, looked up) above

Take `CC(=O)N[C@H](C(=O)N1C[C@H](O)C[C@H]1C(=O)N[C@@H](C)c1ccc(-c2scnc2C)cc1)C(C)(C)C`: the outcome in data set [1] and in data set [2] was inactive.
Consider `C[C@H](CC(=O)C[C@@H](C)[C@H]1C[C@H](O)[C@@]2(C)C3=C(C(=O)C[C@]12C)[C@@]1(C)CCC(=O)C(C)(C)[C@@H]1C[C@@H]3O)C(=O)O` [GANODERIC ACID A], for which the viability at 100 µM with SJSA-1 came to 98.9%; in the data set on MCF7, 84.7%; in the data set on HepG2, 87.2%; in the data set with MDA-MB-231 it was 84.8%. The result in [1] and in data set [2] was inactive.
In the case of `Cc1ncsc1-c1ccc([C@H](C)NC(=O)[C@@H]2C[C@@H](O)CN2C(=O)[C@@H](NC(=O)CCCCc2cn(CCOCCOCCOCCNC(=O)[C@H](C)CC(=O)C[C@@H](C)[C@H]3C[C@H](O)[C@@]4(C)C5=C(C(=O)C[C@]34C)[C@@]3(C)CCC(=O)C(C)(C)[C@@H]3C[C@@H]5O)nn2)C(C)(C)C)cc1`, the viability at 100 µM is 91.8% in data set [3]; 69.6% in the data set with SJSA-1; 24.9% with MCF7; 90.2% in the data set with HepG2; 35.4% in the data set on MDA-MB-231. In data set [4], this molecule gave a Kd of 32.4 µM. The Activity result in [5] is “Dose-Dependent Effect”. The DC50 in data set [5] was determined as 100 µM. Further, the outcome in data set [6] was inactive. Further, the result in data set [7] and in [8] was Active.
